Assay results reported in the supplement of paper PMC10307832.

What was measured:
Assay in all cases: relative viability (nuclei count vs DMSO), 5 days (fraction); higher = more cells survive
Pictilisib + Decitabine = compound: CS(=O)(=O)N1CCN(Cc2cc3nc(-c4cccc5[nH]ncc45)nc(N4CCOCC4)c3s2)CC1 [Pictilisib] + Nc1ncn([C@H]2C[C@H](O)[C@@H](CO)O2)c(=O)n1 [Decitabine] (partner 2 µM)
How it was run: (§1)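 Relative viability was taken as the ratio of nuclei in treated wells to nuclei in vehicle wells. Lung cancer cell lines in 1536-well plates received compounds by pin tool one day after seeding, either one drug alone or a fixed anchor-drug dose plus five library-drug doses (not always all listed) in √10 steps. Nuclei were counted on 4× images after 5 days of treatment, and values are medians of duplicate plates.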

MK-2206 + Tozasertib = compound: NC1(c2ccc(-c3nc4ccn5c(=O)[nH]nc5c4cc3-c3ccccc3)cc2)CCC1 [MK-2206] + Cc1cc(Nc2cc(N3CCN(C)CC3)nc(Sc3ccc(NC(=O)C4CC4)cc3)n2)n[nH]1 [Tozasertib] (partner 0.1 µM)
How it was run: as §1

MK-2206 + Olaparib = compound: NC1(c2ccc(-c3nc4ccn5c(=O)[nH]nc5c4cc3-c3ccccc3)cc2)CCC1 [MK-2206] + O=C(c1cc(Cc2n[nH]c(=O)c3ccccc23)ccc1F)N1CCN(C(=O)C2CC2)CC1 [Olaparib] (partner 8 µM)
How it was run: as §1

Pictilisib + Bortezomib = compound: CS(=O)(=O)N1CCN(Cc2cc3nc(-c4cccc5[nH]ncc45)nc(N4CCOCC4)c3s2)CC1 [Pictilisib] + CC(C)C[C@H](NC(=O)[C@H](Cc1ccccc1)NC(=O)c1cnccn1)B(O)O [Bortezomib] (partner 0.002 µM)
How it was run: as §1

Pictilisib + Navitoclax = compound: CS(=O)(=O)N1CCN(Cc2cc3nc(-c4cccc5[nH]ncc45)nc(N4CCOCC4)c3s2)CC1 [Pictilisib] + CC1(C)CCC(c2ccc(Cl)cc2)=C(CN2CCN(c3ccc(C(=O)NS(=O)(=O)c4ccc(N[C@H](CCN5CCOCC5)CSc5ccccc5)c(S(=O)(=O)C(F)(F)F)c4)cc3)CC2)C1 [Navitoclax] (partner 0.5 µM)
How it was run: as §1

Cell Line | relative viability (Pictilisib + Decitabine; first compound 0.02 µM) | relative viability (Pictilisib + Decitabine; first compound 0.06325 µM) | relative viability (Pictilisib + Decitabine; first compound 0.6325 µM) | relative viability (Pictilisib + Decitabine; first compound 2 µM) | relative viability (MK-2206 + Tozasertib; first compound 0.01 µM) | relative viability (MK-2206 + Tozasertib; first compound 0.3162 µM) | relative viability (MK-2206 + Tozasertib; first compound 1 µM) | relative viability (MK-2206 + Olaparib; first compound 0.01 µM) | relative viability (MK-2206 + Olaparib; first compound 0.03162 µM) | relative viability (MK-2206 + Olaparib; first compound 0.3162 µM) | relative viability (MK-2206 + Olaparib; first compound 1 µM) | relative viability (Pictilisib + Bortezomib; first compound 0.02 µM) | relative viability (Pictilisib + Bortezomib; first compound 0.06325 µM) | relative viability (Pictilisib + Bortezomib; first compound 0.6325 µM) | relative viability (Pictilisib + Bortezomib; first compound 2 µM) | relative viability (Pictilisib + Navitoclax; first compound 0.02 µM) | relative viability (Pictilisib + Navitoclax; first compound 0.06325 µM) | relative viability (Pictilisib + Navitoclax; first compound 0.6325 µM) | relative viability (Pictilisib + Navitoclax; first compound 2 µM) | relative viability (MK-2206 + Tozasertib; first compound 0.03162 µM)
HCC-78 | 0.604 | 0.607 | 0.6 | 0.402 | 1.52 | 0.38 | 0.365 | 0.932 | 1.06 | 0.716 | 0.739 | 0.458 | 0.384 | 0.294 | 0.2 | 0.809 | 0.594 | 0.45 | 0.231 | –
HCC-366 | 0.335 | 0.304 | 0.194 | 0.114 | 0.159 | 0.165 | 0.0632 | 0.367 | 0.472 | 0.328 | 0.322 | 1.08 | 1.01 | 0.691 | 0.189 | 1.04 | 1.06 | 0.908 | 0.195 | 0.0953
HCC-827 | 0.258 | 0.363 | 0.288 | 0.311 | 0.441 | 0.366 | 0.412 | 0.671 | 0.678 | 0.506 | 0.523 | 1.03 | 1.03 | 1.14 | 1.03 | 1.11 | 0.978 | 1.02 | 0.865 | 0.438
HOP-62 | 0.215 | 0.283 | 0.267 | 0.329 | 0.381 | 0.391 | 0.322 | 0.472 | 0.412 | 0.574 | 0.573 | 1.15 | 0.986 | 0.693 | 0.652 | 0.955 | 1.1 | 1.06 | 1.01 | 0.39
LC-2-ad | 0.758 | 0.836 | 0.661 | 0.637 | 0.42 | 0.525 | 0.44 | 0.662 | 0.73 | 0.767 | 0.795 | 1.05 | 1 | 0.633 | 0.56 | 0.606 | 0.415 | 0.17 | 0.143 | 0.484
LCLC-97TM1 | 0.244 | 0.238 | 0.169 | 0.18 | 0.26 | 0.194 | 0.223 | 0.381 | 0.351 | 0.273 | 0.234 | 0.807 | 0.998 | 0.374 | 0.184 | 0.288 | 0.768 | 0.221 | 0.107 | 0.382
LOU-NH91 | 0.827 | 0.829 | 0.771 | 0.7 | 0.693 | 0.658 | 0.645 | 0.901 | 0.98 | 0.91 | 0.847 | 0.456 | 0.455 | 0.502 | 0.401 | 0.822 | 0.735 | 0.573 | 0.408 | 0.727
LU99A | 0.969 | 0.919 | 0.901 | 0.441 | 0.302 | 0.271 | 0.21 | 0.283 | 0.231 | 0.251 | 0.287 | 1.36 | 1.18 | 0.757 | 0.514 | 0.818 | 0.638 | 0.574 | 0.361 | 0.281
LXF-289 | 0.361 | 0.4 | 0.337 | 0.443 | 0.209 | 0.238 | 0.172 | 1.05 | 1.04 | 1.09 | 1.06 | 1.04 | 1.05 | 0.993 | 0.819 | 0.97 | 0.935 | 0.992 | 0.827 | 0.201
NCI-H23 | 0.305 | 0.333 | 0.309 | 0.271 | 0.43 | 0.364 | 0.281 | 0.302 | 0.326 | 0.255 | 0.285 | 0.936 | 1.12 | 0.768 | 0.445 | 0.852 | 0.899 | 0.665 | 0.372 | 0.359
NCI-H322M | 0.735 | 0.696 | 0.656 | 0.43 | 0.455 | 0.449 | 0.455 | 0.778 | 0.806 | 0.782 | 0.874 | 1.11 | 1.2 | 0.873 | 0.907 | 1.23 | 1.22 | 0.956 | 1.14 | 0.552
NCI-H441 | 0.263 | 0.234 | 0.265 | 0.281 | 0.68 | 0.498 | 0.462 | 0.588 | 0.622 | 0.541 | 0.338 | 0.702 | 0.373 | 0.41 | 0.338 | 0.856 | 0.64 | 0.505 | 0.413 | 0.573
NCI-H460 | 0.528 | 0.558 | 0.301 | 0.109 | 0.362 | 0.601 | 0.665 | 0.397 | 0.465 | 0.484 | 0.5 | 1.1 | 1.36 | 0.57 | 0.111 | 1.15 | 1.07 | 0.563 | 0.201 | 0.691
NCI-H520 | 0.492 | 0.478 | 0.237 | 0.168 | 0.405 | 0.254 | 0.367 | 0.359 | 0.331 | 0.228 | 0.195 | 0.632 | 0.464 | 0.291 | 0.156 | 1.17 | 1.24 | 0.599 | 0.134 | 0.543
NCI-H596 | 0.963 | 1.02 | 0.756 | 0.403 | 0.912 | 0.829 | 0.765 | 0.745 | 0.698 | 0.732 | 0.688 | 1.02 | 1.09 | 0.487 | 0.435 | 0.736 | 0.835 | 0.645 | 0.206 | 1.01
